{"source": "paper PMC5654082", "about": "(Malaria Journal, 2017)", "target": "T1, MATE1 (Homo sapiens, UniProt Q96FL8)", "T1 sequence (Q96FL8 1-570)": "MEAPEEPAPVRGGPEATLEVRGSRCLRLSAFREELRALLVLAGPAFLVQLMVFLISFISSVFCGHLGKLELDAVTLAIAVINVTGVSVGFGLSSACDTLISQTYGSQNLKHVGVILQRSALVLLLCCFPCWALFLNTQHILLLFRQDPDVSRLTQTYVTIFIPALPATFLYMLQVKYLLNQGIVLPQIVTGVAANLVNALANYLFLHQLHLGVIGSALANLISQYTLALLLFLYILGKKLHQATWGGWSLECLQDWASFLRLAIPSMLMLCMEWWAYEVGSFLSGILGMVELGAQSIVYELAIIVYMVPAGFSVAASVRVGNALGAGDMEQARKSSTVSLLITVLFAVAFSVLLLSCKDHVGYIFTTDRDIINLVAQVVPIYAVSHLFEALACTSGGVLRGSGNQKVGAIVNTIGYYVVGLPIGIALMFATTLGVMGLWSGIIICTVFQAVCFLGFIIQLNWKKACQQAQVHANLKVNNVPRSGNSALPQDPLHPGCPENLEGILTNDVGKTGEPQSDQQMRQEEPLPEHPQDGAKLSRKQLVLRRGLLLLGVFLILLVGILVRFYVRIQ", "assay": "MATE1-mediated uptake in transduced HEK293 cells", "type": "cell-based", "parameters": "host or cells: HEK293, baculovirus transduction (CMV promoter), transient", "settings": "100 µM, 5 min", "experimental": "HEK293 cells were modified to transiently express (a combination of) human OCT1, OCT2, MATE1, MATE2-K, or eYFP. Briefly, cDNA of the respective genes was cloned downstream of a CMV promoter into a baculovirus, of which passage three was used to transduce HEK293 cells. These cells were seeded in poly-D-lysine coated 24- or 96-wells plates and grown in a 37 °C incubator at 5% CO2. Growth was initiated at ~ 25% confluency using 375 or 125 μL cell and complete medium (DMEM + GlutaMAX™-I supplemented with 10% fetal bovine serum) suspension per well, respectively. […]\nImport and export of PG and cycloguanil (CG) was assessed by single and double transduced HEK293 cells. […] Following the same procedure as for the cellular import assay described above, the import of 100 µM PG and CG was measured after 5 min incubation and data was plotted as mean pmol/mg/min ± SEM. […] Significant reduction in uptake (i.e. export by MATEs) was determined using ln transformation and a one-way repeated measures ANOVA with Dunnet’s post test.\nAnti-malarial concentration in the cell lysates was quantified using an LC–MS/MS system consisting of a UPLC, a binary solvent manager, a vacuum degasser and an autosampler, coupled to a Xevo TQ-S micro triple quadrupole mass spectrometer. […] The peak area of the most abundant product ion was used for quantification.", "note": "Where a name gives a salt, the structure may show the parent alone.", "data": [{"smiles": "CC1(C)N=C(N)N=C(N)N1c1ccc(Cl)cc1", "note": "[Cycloguanil]", "values": [{"measurement": "Uptake by MATE1", "value": "40 ± 9", "unit": "pmol/mg/min"}]}, {"smiles": "[H]/N=C(\\N/C(=N/[H])Nc1ccc(Cl)cc1)NC(C)C", "note": "[Proguanil, proguanil hydrochloride]", "values": [{"measurement": "Uptake by MATE1", "value": "430 ± 110", "unit": "pmol/mg/min"}]}]}
